One data set has as its system SARS-CoV-2. Nature of the data set: CellTiter-Glo host cell viability assay of SARS-CoV-2-infected Vero E6 cells. The format is cell-based. Conditions: for host cell viability: hypericin 0 μM. The procedure:
Vero E6 cells were seeded at 25,000 cells/well in 96-well plates and SARS-CoV-2 was added into the wells at a MOI of 0.01. After 1 hour, hypericin (Cayman Chemical, ≥95% purity) was added into the wells at final concentrations of 1.5625-100 μM or the vehicle only control (DMSO), followed by the addition of remdesivir (Novation Chemicals, 98% purity) at final concentrations of 0.3125-5 μM or the vehicle only control (DMSO), and incubated at 37° C.
After 72 hours of incubation, host cell viability was assessed using CellTiter-Glo® Luminescent Cell Viability Assay (Promega) according to the manufacturer's instructions. Results were normalized to the highest dose of remdesivir alone (5 μM) and are summarized below in Table 1.

Data set [1] relates to SARS-CoV-2 virus [B.1.351]. The data set is classed as in vivo, mice. Particulars: Hypericin 20 mg/kg alone, pre-treatment from two days prior to infection; day 4 post-infection.

Each structure is given as a SMILES string.

With `CCC(CC)COC(=O)[C@H](C)N[P@](=O)(OC[C@H]1O[C@@](C#N)(c2ccc3c(N)ncnn23)[C@H](O)[C@@H]1O)Oc1ccccc1` [Remdesivir, remdesivir, reference compound], the host cell viability came out at 19.8% in the data set with SARS-CoV-2 (remdesivir 0.3125 μM, 72 h, normalized to remdesivir 5 μM alone); 21.9% with SARS-CoV-2 (remdesivir 0.625 μM, 72 h, normalized to remdesivir 5 μM alone); 25.2% in the data set on SARS-CoV-2 (remdesivir 1.25 μM, 72 h, normalized to remdesivir 5 μM alone); 38.1% in the data set with SARS-CoV-2 (remdesivir 2.5 μM, 72 h, normalized to remdesivir 5 μM alone).

In the data set on SARS-CoV-2 (Severe acute respiratory syndrome coronavirus 2, Vero C1008, hypericin 1.563 μM, remdesivir 0 μM, 72 h, normalized to remdesivir 5 μM alone), `Cc1cc(O)c2c(=O)c3c(O)cc(O)c4c5c(O)cc(O)c6c(=O)c7c(O)cc(C)c8c1c2c(c34)c(c78)c65` [Hypericin] yielded a viability at 1.563 µM of 14.6%. In the data set on SARS-CoV-2 (Severe acute respiratory syndrome coronavirus 2, Vero C1008, hypericin 3.125 μM, remdesivir 0 μM, 72 h, normalized to remdesivir 5 μM alone), this molecule registered a viability at 3.125 µM of 12.9%. Besides, the viability at 6.25 µM in the data set on SARS-CoV-2 (Severe acute respiratory syndrome coronavirus 2, Vero C1008, hypericin 6.25 μM, remdesivir 0 μM, 72 h, normalized to remdesivir 5 μM alone) came out at 12.8%. Moreover, the viability at 12.5 µM with SARS-CoV-2 (Severe acute respiratory syndrome coronavirus 2, Vero C1008, hypericin 12.5 μM, remdesivir 0 μM, 72 h, normalized to remdesivir 5 μM alone) turned out to be 20.4%. In the data set on SARS-CoV-2 (Severe acute respiratory syndrome coronavirus 2, Vero C1008, hypericin 25 μM, remdesivir 0 μM, 72 h, normalized to remdesivir 5 μM alone), this molecule had a viability at 25 µM of 62%. The viability at 50 µM is 62.6% in the data set with SARS-CoV-2 (Severe acute respiratory syndrome coronavirus 2, Vero C1008, hypericin 50 μM, remdesivir 0 μM, 72 h, normalized to remdesivir 5 μM alone) and at most 62% in the data set on SARS-CoV-2 (Severe acute respiratory syndrome coronavirus 2, Vero C1008, hypericin alone (12.5-100 μM), up to, at 50 μM). This molecule displayed a viability at 100 µM in the data set with SARS-CoV-2 (Severe acute respiratory syndrome coronavirus 2, Vero C1008, hypericin 100 μM, remdesivir 0 μM, 72 h, normalized to remdesivir 5 μM alone) of 38%. In addition, the “effect on host cell viability in words” value with SARS-CoV-2 (hypericin (25-50 μM) alone) is reported as “modest improvements in host cell viability”. In addition, the “mice in which all infectious titers were eliminated” value in data set [1] was 5 out of 7.

As usually defined, the viability is a read-out of living cells in per cent, often relative to untreated cells.

(Values after patent publication US11654121B1 (priority 2022, dated 2023).)
